Each structure is given as a SMILES string. Converted amounts (≈) assume the structure as drawn. “Also recorded” adds a separate entry of the source. Some results are limits rather than exact numbers.

Consider 20 compounds from PMC3871185 (ACS medicinal chemistry letters, 2013).

Assay [1] relates to Burkholderia thailandensis. The settings on record: cited from earlier work.
Assay [2] deals with B. pseudomallei. The conditions noted are these: cited from earlier work.
Assay [3] relates to clinical B. pseudomallei isolates. The conditions noted are these: cited from earlier work.
For assay [4], the system named is hMetAP2. The settings on record: cited from earlier work; for IC50: read-out: hMetAP2 IC50.
The test system of assay [5] is hMetAP1. The conditions noted are these: read-out: hMetAP1 IC50; cited from earlier work.
Assay [6] has as its target BpMetAP1 (Burkholderia pseudomallei, UniProt Q63T11).
Assay [7] deals with Burkholderia thailandensis.
In assay [8] the test system is B. pseudomallei strain Bp340. The assay is classed as cell-based, Burkholderia pseudomallei.
Assay [9] deals with B. pseudomallei 1026b. The class given is cell-based, Burkholderia pseudomallei.
For assay [10], the system named is Burkholderia thailandensis. Put plainly: microbe, parasite or virus in culture. The settings on record: read-out: minimum inhibitory concentration (MIC).

Sequence of BpMetAP1 (Q63T11 1-271): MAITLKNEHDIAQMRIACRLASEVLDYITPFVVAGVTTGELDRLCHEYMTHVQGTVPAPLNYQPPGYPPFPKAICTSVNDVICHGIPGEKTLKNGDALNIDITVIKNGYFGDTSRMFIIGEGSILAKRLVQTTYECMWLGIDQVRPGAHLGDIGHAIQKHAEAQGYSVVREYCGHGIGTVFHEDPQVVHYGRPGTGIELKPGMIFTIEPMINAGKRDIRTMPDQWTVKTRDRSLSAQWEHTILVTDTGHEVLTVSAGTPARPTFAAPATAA

On to `NC[C@H]1O[C@H](O[C@H]2[C@H](O)[C@@H](O[C@H]3O[C@H](CO)[C@@H](O)[C@H](N)[C@H]3O)[C@H](N)C[C@@H]2N)[C@H](O)[C@@H](O)[C@@H]1O` [Km, kanamycin], for which the “killing of B. thailandensis” value in [1] is “complete killing”. The “killing of B. pseudomallei” value in assay [2] is reported as “complete killing”. Turning to `CC(C)(O/N=C(\C(=O)N[C@@H]1C(=O)N2C(C(=O)[O-])=C(C[n+]3ccccc3)CS[C@H]12)c1csc(N)n1)C(=O)O` [ceftazidime], the MIC in assay [3] is 1 to 6 µg/mL. What is called IC50 is the point on the concentration scale where inhibition reaches its midpoint. `O=S(=O)(O)c1ccc(O)c2ncccc12` [compound 1]: the half-inhibitory concentration (IC50) in assay [4] and in [5] was above 15 µM each time.

For `Cc1ccc2cccc(O)c2n1` [compound 2, reference compound], in [6], the “BpMetAP1 inhibition potency (in words)” value is “inactive”. Also, in assay [7], the “growth inhibition of B. thailandensis (in words)” value (from here on “growth inhibition … (in words)”) is “inhibited cell growth”. Moreover, the IC50 in assay [4] and in [5] was above 15 µM in each case.

With `Oc1cccc2cccnc12` [compound 3, reference compound], in [7], the “growth inhibition … (in words)” value is recorded as “inhibited cell growth”. Further, the IC50 in assay [5] is above 15 µM. `Oc1c(CN2CCCCC2)cc(Cl)c2cccnc12` [compound 5]: the “BpMetAP1 inhibition potency (in words)” value in assay [6] is listed as “Met-AP inhibition”. As for `Oc1c(CN2CCSCC2)cc(Cl)c2cccnc12` [compound 7], the “growth inhibition … (in words)” value in assay [7] was “inhibited cell growth”. Take `O=[N+]([O-])c1ccc(O)c2ncccc12` [compound 9, 5-nitro-8-hydroxyquinoline]: in assay [8], the “growth inhibition of B. pseudomallei Bp340” value was “complete growth inhibition”. In addition, the “inhibition of B. pseudomallei 1026b” value in assay [9] was “no difference in inhibition compared to Bp340”. The “BpMetAP1 inhibition potency (in words)” value in [6] was “Met-AP inhibition”. Further, in assay [7], the “growth inhibition … (in words)” value is “potent growth inhibitors; also recorded: inhibition of cell growth”. Also, in [4], the “activity against human MetAP2 in vitro” value was “nanomolar range”. Besides, the IC50 in [5] was above 15 µM. In assay [10], the MIC was around 6 µg/mL (≈ 31.6 µM). In the case of `O=[N+]([O-])c1cc(CN2CCCCC2)c(O)c2ncccc12` [compound 10], the “BpMetAP1 inhibition potency (in words)” value in [6] was “decreased potency”. Besides, the “growth inhibition … (in words)” value in assay [7] is “inactive”. In the case of `CN(C)Cc1cc([N+](=O)[O-])c2cccnc2c1O` [compound 11], in assay [7], the “growth inhibition … (in words)” value is listed as “potent growth inhibitors; also recorded: inhibition of cell growth”. On the same count and under the same terms, the value for `O=[N+]([O-])c1cc(CN2CCCC2)c(O)c2ncccc12` [compound 12] was “potent growth inhibitors; also recorded: inhibition of cell growth”. As for `O=[N+]([O-])c1cc(CN2CCOCC2)c(O)c2ncccc12` [compound 13], in assay [6], the “BpMetAP1 inhibition potency (in words)” value is listed as “decreased potency”. The same measure, in the same setting: the value for `O=[N+]([O-])c1cc(CN2CCSCC2)c(O)c2ncccc12` [compound 14] was “decreased potency”. On to `CN1CCN(Cc2cc([N+](=O)[O-])c3cccnc3c2O)CC1` [compound 15], for which the “growth inhibition … (in words)” value in assay [7] is reported as “potent growth inhibitors; also recorded: inhibition of cell growth; also recorded: nearly complete cell growth inhibition”. In the case of `Cc1ccc(CSc2nnc(N)[nH]2)cc1` [compound 16], the “BpMetAP1 inhibition potency (in words)” value in assay [6] is on record as “low micromolar range”.

Consider `Nc1nnc(SCc2ccc(F)cc2)[nH]1` [compound 17], for which the “BpMetAP1 inhibition potency (in words)” value in assay [6] is recorded as “low micromolar range”. Still for that read-out and setting: the value for `Nc1nnc(SCc2ccc(Cl)cc2Cl)[nH]1` [compound 18] was “low micromolar range”.

Consider `O=C(O)c1ccc(-c2ccccc2Cl)o1` [compound 22, reference compound], for which the “growth inhibition … (in words)” value in [7] is “essentially no ability to inhibit bacterial growth”.

Consider `O=C(O)c1ccc(-c2cc(Cl)ccc2Cl)o1` [compound 23, reference compound], for which the “growth inhibition … (in words)” value in assay [7] is “essentially no ability to inhibit bacterial growth”. Turning to `O=C(O)c1cc(Br)ccc1NS(=O)(=O)c1ccc(Cl)cc1` [compound 25], the “growth inhibition … (in words)” value in assay [7] was “nor the sulfonamide (24 and 25) derivatives demonstrated significant growth inhibition”.
